From patent publication US10717758B2, “D-amino acid compounds for liver disease” (priority 2012, dated 2020)
Where two headings read alike, the source gives them in different places.

How the values were obtained:
[1] = Plasma and liver PK after single oral dose (Example 4C); assay type: in vivo, CD-1 mice; details: at 1 μmol/kg; single oral dose 10 mg/kg for 804a or 25 mg/kg for 804b
Experimental: Plasma samples were analyzed for 2′-methyl-2′-fluorouridine (2′-Me-2′-F-U) by LC-MS/MS. The internal standard (IS) was D3-2′-F-2′-Me-G. For protein precipitation and extraction, each plasma sample (50 μL) was treated with 500 μL of 0.2% formic acid in acetonitrile and 20 μL of the internal standard working solution. After vortexing and centrifugation, 500 μL of the sample extracts were transferred to a new plate, dried under N2 at ˜28° C. and reconstituted with 75 μL of 0.2% FA in water. The extracts were chromatographed on an Aquasil C18 column using a gradient system of 0.2% formic acid in water and acetonitrile. The analytes were detected and quantified by tandem mass spectrometry in positive ion mode on an MDS Sciex API5000 equipped with a Turbo Ionspray® interface. The calibration range was 0.500 (LLOQ) to 200 ng/mL in mouse plasma. The corresponding range for molar units is 1.92 to 769 pmol/mL.
Liver samples were analyzed for the active species 2′-methyl-2′-fluorouridine triphosphate (2′-Me-2′-F—U TP) by LC-MS/MS. […] Internal standard solution was added to the homogenate followed by neutralization with 20% ammonium hydroxide solution and addition of 500 μL 1% formic acid. The tissue samples were extracted by weak anion exchange solid phase extraction (SPE). […]

Huh-7 cells = test: Release of active metabolite in Huh-7 cells; assay type: in vitro ADME, human
Experimental: Huh-7 cells were plated in 1 mL culture medium (DMEM, containing glucose, L-glutamine and sodium pyruvate, 10% FBS, 100 IU/mL penicillin, 100 μg/mL streptomycin, 2 mM GlutaMAX, 1% MEM non-essential amino acids) at the concentration 0.8, 0.4 and 0.2 million cells per well on 6 well plates for 24, 48 and 72 hr treatment, respectively. Plated cells were incubated overnight at 37° C. in an incubator.
The following morning test compound was diluted to 20 μM from a stock solution in DMSO in fresh culture medium pre-warmed to 37° C. and 1 mL of the solution/well was added to cells. A final medium volume per well was 2.0 mL, test compound concentration in well was 10 μM and final DMSO concentration was 0.1%.
After 24, 48 or 72 hr, the medium was carefully removed and cell monolayers were washed twice with 2 mL ice-cold PBS per well. Following the last wash, all PBS was carefully removed and 1.0 mL of extraction solution (ice-cold 70% methanol) added. The plate was tightly covered with Parafilm, plastic plate cover and Parafilm again and an intracellular content was extracted at −20° C. for 24 hr.
After 24 hr the extracts were transferred into polypropylene microfuge tubes and dry on a refrigerated centrivap concentrator. Dry residues were reconstituted in 250 μL of HPLC-grade water and centrifuged at 16,000×g for 10 min. Aliquots (100 μL each) of the supernatants were transferred into a 96 well plate and internal standard (4 ng/mL final concentration) was added as the internal standard (IS) for LC-MS/MS analysis.

HCV genotype 1b replicon = test: HCV replicon assay; assay type: cell-based; details: Hepatitis C virus
Experimental: Huh-7-derived cell line (Zluc) that harbors an HCV genotype 1b replicon and a luciferase reporter gene was grown in Dulbecco's Modified Eagle Medium (DMEM) supplemented with 10% fetal bovine serum, 2 mM GlutaMAX, 1% MEM nonessential amino acids, 100 IU/mL penicillin, 100 μg/mL streptomycin, and 0.5 mg/mL Geneticin® (G418). For dose response testing the cells were seeded in 96-well plates at 7.5×10^3 cells per well in a volume of 50 μL, and incubated at 37° C./5% CO2. Drug solutions were made up freshly in Huh-7 media as 2× stocks. Ten additional 5-fold dilutions were prepared from these stocks in DMEM without G418. At least three hours after Zluc cells were seeded, drug treatment was initiated by adding 50 μL of drug dilutions to the plates in duplicate. Final concentrations of drug ranged from 100 μM to […]. Cells were then incubated at 37° C./5% CO2. Alternatively, compounds were tested at two concentrations (1 μM and 10 μM). […] For this, media was removed from the plates via gentle tapping. Fifty microliters of ONE-glo luciferase assay reagent was added to each well. The plates were shaken gently for 3 min at room temperature and luminescence was measured on a Victor^3 V 1420 multilabel counter (Perkin Elmer) with a 1 second read time using a 700 nm cut-off filter. The EC50 values were calculated from dose response curves from the resulting best-fit equations determined by Microsoft Excel and XLfit 4.1 software. When screening at two fixed concentrations, the results were expressed as % inhibition at 1 μM and 10 μM.

fresh human hepatocytes = test: Release of active metabolite in primary hepatocytes (human); assay type: in vitro ADME; details: 10 μM
Experimental: (§1) Plates of fresh human and mouse hepatocytes were obtained on ice. The medium was removed and replaced with hepatocyte culture medium (William's E supplemented with penicillin-streptomycin, 1% L-glutamine, 1% insulin-transferrin-selenium and 0.1 μM Dexamethasone (Invitrogen) or with Invitro GRO HI medium complemented with Torpedo antibiotics (Celsis)). Cells were left overnight in an incubator at 37° C. to acclimatize to culture and the medium.
Hepatocyte incubations were conducted at a final volume of 0.5 mL hepatocyte culture medium/well (0.8 million cells/well for human and 0.5 million cells/well for mouse; 12 well plate no overlay, collagen coat). Culture medium from overnight incubation of cells was removed and replaced with fresh medium, pre-warmed to 37° C., containing 10 μM of test compound from a stock solution in DMSO (final DMSO concentration was 0.1%). At each specific time point, incubation medium was removed and cell monolayers were carefully washed two times with ice-cold PBS. Following the last wash, all PBS was carefully removed and 1.0 mL of extraction solution (ice-cold 70% methanol/30% water) added. Cells were scraped off and suspended in the extraction solution, transferred to 2 mL polypropylene microfuge tubes and intracellular contents extracted overnight at −20° C. […]

fresh mouse hepatocyte = test: Release of active metabolite in primary hepatocytes (mouse); assay type: in vitro ADME; details: 10 μM
Experimental: as §1
Hepatocyte incubations were conducted at a final volume of 0.5 mL hepatocyte culture medium/well (0.8 million cells/well for human and 0.5 million cells/well for mouse; 12 well plate no overlay, collagen coat). Culture medium from overnight incubation of cells was removed and replaced with fresh medium, pre-warmed to 37° C., containing 10 μM of test compound from a stock solution in DMSO (final DMSO concentration was 0.1%). At each specific time point, incubation medium was removed and cell monolayers were carefully washed two times with ice-cold PBS. Following the last wash, all PBS was carefully removed and 1.0 mL of extraction solution (ice-cold 70% methanol/30% water) added. Cells were scraped off and suspended in the extraction solution, transferred to 2 mL polypropylene microfuge tubes and intracellular contents extracted overnight at −20° C.
After the overnight treatment the cellular extracts were prepared by centrifugation at 16,000×g for 10 min to remove cellular debris. The remaining sample was then dried using a refrigerated centrivap concentrator. Dry extracts were reconstituted in 1000 μL of HPLC-grade water and centrifuged at 16,000×g for 10 min. Aliquots (100 μL each) of the supernatant were transferred into a 96 well plate and internal standard (4 ng/mL final concentration) was added as the internal standard (IS) for LC-MS/MS analysis.
The incubation time points were 6, 24 and 48 hours for human hepatocytes and 1, 4, 8, 12 and 24 hours for mouse hepatocytes.

Zluc cells = test: Cytotoxicity evaluation in Zluc cells (CellTiter-Blue); assay type: cell-based, human; details: read-out: HCV Replicon CC50
Experimental: (§2) For cytotoxicity evaluation, Zluc cells were treated with compound as described herein, and cell viability was monitored using the CellTiter-Blue Cell Viability Assay (Promega) by adding 20 μL of the assay solution to each well. The plates were then incubated at 37° C./5% CO2 for at least 3 hours.

[2] = Liver TP formation and liver targeting in vivo (Example 6, Table 7); set-up: species or system mice and monkey
Text: The in vitro antiviral inactivity of Z4 and Z2 is thought to reflect an inability of Huh-7 replicon cells to metabolize the prodrug moiety.

[3] = target: T1, carboxylesterase 1 (CES1) (Homo sapiens, UniProt P23141); test: Hydrolysis of prodrugs by Carboxylesterase 1; assay type: in vitro ADME; details: for CES1 hydrolysis: 100 μM compound, 37° C., pH 7.5
T1 construct: purchased R & D Systems (Minneapolis, Minn.)
T1 sequence (P23141 18-567): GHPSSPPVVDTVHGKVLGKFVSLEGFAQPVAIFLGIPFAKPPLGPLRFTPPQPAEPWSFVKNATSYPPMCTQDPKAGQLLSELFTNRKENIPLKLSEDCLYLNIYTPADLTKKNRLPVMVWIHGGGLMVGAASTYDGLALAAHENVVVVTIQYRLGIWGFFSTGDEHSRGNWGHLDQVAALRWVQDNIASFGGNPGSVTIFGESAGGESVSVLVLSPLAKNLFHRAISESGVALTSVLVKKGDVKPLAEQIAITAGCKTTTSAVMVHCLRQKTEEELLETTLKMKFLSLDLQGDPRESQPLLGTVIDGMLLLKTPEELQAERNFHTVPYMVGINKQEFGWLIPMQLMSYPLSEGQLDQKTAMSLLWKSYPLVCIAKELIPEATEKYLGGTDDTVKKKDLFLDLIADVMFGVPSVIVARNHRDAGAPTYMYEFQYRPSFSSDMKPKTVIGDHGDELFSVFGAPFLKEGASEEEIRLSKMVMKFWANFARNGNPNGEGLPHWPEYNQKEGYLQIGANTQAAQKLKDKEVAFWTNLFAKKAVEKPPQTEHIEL
Experimental: CES1 assay was performed at 37° C. in the reaction mixture containing 50 mM Tris/HCl buffer pH 7.5 and 100 μM of the compound. Reaction was started by addition of the CES1 to the final concentration 0.01 μg/mL. 100 μL aliquots were taken after 0.5 min, 3 hrs and 21 hrs of the incubation and the reaction was stopped by mixing with 100 μl of the ice-cold methanol prior to HPLC analysis.
Samples were analyzed by HPLC using 5 μC-18, 4.6×250 mm Phenomenex® Columbus column (Phenomenex USA, Calif.). The mobile phase consisted of buffer A (25 mM potassium phosphate with 5 mM tetrabutylammonium dihydrogen phosphate pH 6.3) and buffer B (100% methanol).

cathepsin A (CatA) = target: T2, cathepsin A (CatA) (Homo sapiens, UniProt P10619); test: Hydrolysis of prodrugs by Cathepsin A; assay type: in vitro ADME; details: time not given; 100 μM compound, 37° C., pH 6.0
T2 sequence (P10619 29-326 limits assumed): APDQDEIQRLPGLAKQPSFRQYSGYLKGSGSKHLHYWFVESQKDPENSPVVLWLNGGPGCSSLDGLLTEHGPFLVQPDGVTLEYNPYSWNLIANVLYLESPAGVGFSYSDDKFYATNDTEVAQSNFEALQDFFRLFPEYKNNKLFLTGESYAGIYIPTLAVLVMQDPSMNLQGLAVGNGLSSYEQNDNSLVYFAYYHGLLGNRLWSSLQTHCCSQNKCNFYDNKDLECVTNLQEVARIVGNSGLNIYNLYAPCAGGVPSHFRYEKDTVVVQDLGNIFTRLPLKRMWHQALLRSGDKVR
T2 sequence (P10619 327-480 limits assumed): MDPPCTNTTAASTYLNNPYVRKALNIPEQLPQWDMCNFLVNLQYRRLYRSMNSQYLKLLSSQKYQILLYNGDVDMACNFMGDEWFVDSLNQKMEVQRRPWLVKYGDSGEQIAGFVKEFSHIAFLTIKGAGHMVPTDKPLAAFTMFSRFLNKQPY
Experimental: CatA, cathepsin L (CatL) and CES1 were purchased from R & D Systems (Minneapolis, Minn.). Prior to the enzymatic hydrolysis reactions, CatA was activated according to the manufacturer's instruction. Briefly, CatA (0.05 μg/μL) was incubated with CatL (0.005 μg/μL) for 30 min at 37° C. in 25 mM MES pH 6.0 containing 5 mM DTT. The reaction was stopped by addition of the CatL specific inhibitor E64 (10 μM).
The CatA assay was performed at 37° C. The reaction mixture contained 25 mM MES buffer pH 6.0, 100 mM NaCl, 4 mM DTT and 100 μM of the compound. The reaction was started by addition of the activated CatA enzyme to a final concentration of 0.005 μg/μL. […] Reactions were stopped by mixing the sample with an equal volume of ice-cold methanol, and were loaded on a HPLC for analysis.

[4] = Cytotoxicity evaluation in Zluc cells (CellTiter-Blue); assay type: cell-based, human; details: human, read-out: HCV Replicon CC50
Experimental: as §2

[5] = 72 h, Zluc (Huh-7-derived) cells, luciferase reporter, 72 hours, read-out: HCV Replicon EC50

Compound: CC(C)OC(=O)[C@H](C)N[P@](=O)(OC[C@H]1O[C@@H](n2ccc(=O)[nH]c2=O)[C@](C)(F)[C@@H]1O)Oc1ccccc1 [GS-7977]
- Ms Plasma 2′-Me-2′-F-U AUC [1]: 0.00115 M·s

Compound: CC(C)OC(=O)[C@H](C)NP(=O)(OC[C@H]1O[C@@H](n2ccc(=O)[nH]c2=O)[C@](C)(Cl)[C@@H]1O)Oc1ccccc1 (single isomer, unassigned) [40ii Diastereomer 2]
- Huh-7 TP AUC (Huh-7 cells; 10 μM test compound): 14544 pmol.hr/mill cells
- Huh-7 TP Cmax (Huh-7 cells; 10 μM test compound): 294 pmol/mill cells
- EC50 (HCV genotype 1b replicon; [5]): 0.25 to 1 µM
- FHH TP AUC (fresh human hepatocytes): 4934 pmol.hr/mill cells
- FHH TP Cmax (fresh human hepatocytes): 197 pmol/mill cells
- MsH AUC (fresh mouse hepatocyte): 1794 pmol.hr/mill cells
- MsH Cmax (fresh mouse hepatocyte): 87 pmol/mill cells
- CC50 (Zluc cells): > 50 µM

Compound: CC(C)OC(=O)[C@@H](C)NP(=O)(OC[C@H]1O[C@@H](n2ccc(=O)[nH]c2=O)[C@](C)(Cl)[C@@H]1O)Oc1ccccc1 (single isomer, unassigned) [Compound 40i Diastereomer 1]
- Huh-7 AUC0-72 (Huh-7 cells; Table 7): 436.9 pmol*hr/10^6cells
- EC50 (HCV genotype 1b replicon; Huh-7, read-out: EC50 (replicon reproduction), genotype 1b HCV replicon-bearing human hepatoma cell line (Huh-7)): > 50 µM
- Liver:plasma ratio of drug metabolites [2]: high liver:plasma ratio of drug metabolites
- Hydrolysis by CES1 [3]: processed
- CES1 hydrolysis ([3]; 3 h): 23% @
- CES1 hydrolysis ([3]; 21 h): 3 h; 49%
- CatA hydrolysis (cathepsin A (CatA)): 0%

Compound: CCOc1nc(N)nc2c1ncn2[C@@H]1O[C@H](COP(=O)(N[C@H](C)C(=O)OC(C)C)Oc2ccccc2)C[C@@]1(C)F (single isomer, unassigned) [502a Diastereomer 1]
- EC50 (HCV genotype 1b replicon; [5]): 1 to 10 µM
- CC50 [4]: < 50 µM

Compound: CC(C)OC(=O)[C@@H](C)NP(=O)(OC[C@H]1O[C@@H](n2ccc(=O)[nH]c2=O)[C@](C)(Cl)[C@@H]1O)Oc1ccccc1 (single isomer, unassigned) [40i Diastereomer 1]
- EC50 (HCV genotype 1b replicon; [5]): > 10 µM
- MsH AUC (fresh mouse hepatocyte): 4052 pmol.hr/mill cells
- MsH Cmax (fresh mouse hepatocyte): 198 pmol/mill cells
- CC50 [4]: > 50 µM
